Values quoted from earlier work in publication PMC7876056, “Population Pharmacokinetic Analysis of Yimitasvir in Chinese Healthy Volunteers and Patients With Chronic Hepatitis C Virus Infection” (Frontiers in Pharmacology, 2021).
Like-named read-outs stand apart in the source and are kept apart here.

Conditions: cited from earlier work; for Time-varying ALT as covariate on PK: healthy volunteers and HCV patients
[1] = ref U.S. Food and Drug Administration, 2014
[2] = ref U.S. Food and Drug Administration, 2016

COC(=O)N[C@H](C(=O)N1CCC[C@H]1c1nc(-c2ccc(-c3ccc(-c4c[nH]c([C@@H]5CCCN5C(=O)[C@@H](NC(=O)OC)C(C)C)n4)cc3)cc2)c[nH]1)C(C)C [daclatasvir]
Time-varying ALT as covariate on CL/F (patient population only, ref Chan et al., 2017): significant covariate
Effect of time-varying ALT on AUCss (ref Chan et al., 2017): small
Gender effect on CL/F (ref Chan et al., 2017): lower CL/F values in females

COC(=O)N[C@H](C(=O)N1CC2(CC2)C[C@H]1c1ncc(-c2ccc3c(c2)C(F)(F)c2cc(-c4ccc5nc([C@@H]6[C@H]7CC[C@H](C7)N6C(=O)[C@@H](NC(=O)OC)C(C)C)[nH]c5c4)ccc2-3)[nH]1)C(C)C [ledipasvir]
Time-varying ALT as covariate on PK [1]: not identified as a significant covariate
Effect of co-medication of sofosbuvir on PK profile (ref German et al., 2016): not affected by co-medication of sofosbuvir
Gender effect on CL/F [1]: lower CL/F values in females

COC[C@H]1C[C@@H](c2ncc(-c3ccc4c(c3)COc3cc5c(ccc6nc([C@@H]7CC[C@H](C)N7C(=O)[C@@H](NC(=O)OC)C(C)C)[nH]c65)cc3-4)[nH]2)N(C(=O)[C@H](NC(=O)OC)c2ccccc2)C1 [velpatasvir]
Time-varying ALT as covariate on PK [2]: not identified as a significant covariate
Effect of co-medication of sofosbuvir on PK profile (ref Brieva et al., 2017): not affected by co-medication of sofosbuvir
Gender effect on CL/F [2]: lower CL/F values in females
